The target of one assay is T1, purified human HDAC6 (Homo sapiens, UniProt Q9UBN7).
T1 construct: purchased BPS Bioscience 5006
T1 sequence (Q9UBN7 1-1215): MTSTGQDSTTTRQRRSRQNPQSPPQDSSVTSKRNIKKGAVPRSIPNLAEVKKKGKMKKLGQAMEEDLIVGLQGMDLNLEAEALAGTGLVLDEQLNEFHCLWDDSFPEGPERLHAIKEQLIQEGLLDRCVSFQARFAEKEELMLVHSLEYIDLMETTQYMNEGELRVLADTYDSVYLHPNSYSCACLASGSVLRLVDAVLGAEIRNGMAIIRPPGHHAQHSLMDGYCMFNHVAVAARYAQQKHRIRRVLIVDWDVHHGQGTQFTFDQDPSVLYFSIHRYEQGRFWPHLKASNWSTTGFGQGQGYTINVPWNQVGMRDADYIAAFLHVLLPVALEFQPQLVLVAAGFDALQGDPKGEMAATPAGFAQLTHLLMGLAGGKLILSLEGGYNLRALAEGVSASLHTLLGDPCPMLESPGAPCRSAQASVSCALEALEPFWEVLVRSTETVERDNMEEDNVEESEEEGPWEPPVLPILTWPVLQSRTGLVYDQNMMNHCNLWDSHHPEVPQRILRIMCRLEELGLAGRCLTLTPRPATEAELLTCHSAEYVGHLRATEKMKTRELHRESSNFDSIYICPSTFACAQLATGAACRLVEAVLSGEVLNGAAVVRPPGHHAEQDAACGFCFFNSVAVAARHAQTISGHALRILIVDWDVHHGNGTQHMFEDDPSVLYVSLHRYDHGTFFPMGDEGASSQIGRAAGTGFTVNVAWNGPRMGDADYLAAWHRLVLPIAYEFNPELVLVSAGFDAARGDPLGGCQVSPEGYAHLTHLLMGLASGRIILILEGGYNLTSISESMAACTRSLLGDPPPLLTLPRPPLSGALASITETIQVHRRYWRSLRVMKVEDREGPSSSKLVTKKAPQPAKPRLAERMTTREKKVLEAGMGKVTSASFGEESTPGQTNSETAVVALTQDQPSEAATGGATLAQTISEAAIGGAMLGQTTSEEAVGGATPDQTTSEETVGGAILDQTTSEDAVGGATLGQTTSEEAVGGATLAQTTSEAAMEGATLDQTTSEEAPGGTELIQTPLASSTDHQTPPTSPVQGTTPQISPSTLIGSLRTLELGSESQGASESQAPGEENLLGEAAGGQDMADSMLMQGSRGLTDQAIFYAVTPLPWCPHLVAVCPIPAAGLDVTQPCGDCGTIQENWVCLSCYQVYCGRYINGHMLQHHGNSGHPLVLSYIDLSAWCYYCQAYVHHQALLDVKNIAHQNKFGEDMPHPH
Put plainly: HDAC6 enzyme assay. The following applies: bin: less than 100 nM. In kind it is biochemical. The procedure:
To measure the inhibition of HDAC6 activity, purified human HDAC6 (BPS Bioscience; Cat. No. 5006) is incubated with substrate Ac-Arg-Gly-Lys(Ac)-AMC peptide (Bachem Biosciences; Cat. No. I-1925) for 1 hour at 30° C. in the presence of test compounds or vehicle DMSO control. The reaction is stopped with the HDAC inhibitor trichostatin A (Sigma; Cat. No. T8552) and the amount of Arg-Gly-Lys-AMC generated is quantitated by digestion with trypsin (Sigma; Cat. No. T1426) and subsequent measurement of the amount of AMC released using a fluorescent plate reader (Pherastar; BMG Technologies) set at Ex 340 nm and Em 460 nm. Concentration response curves are generated by calculating the fluorescence increase in test compound-treated samples relative to DMSO-treated controls, and enzyme inhibition (IC50) values are determined from those curves.
`O=C(NO)c1cn2c(n1)CN(C(=O)c1cc3ccccc3s1)CC2` [Compound I-44, 7-(1-benzothien-2-ylcarbonyl)-N-hydroxy-5,6,7,8-tetrahydroimidazo[1,2-a]pyrazine-2-carboxamide] returned an IC50 of less than 0.1 µM. On the same count and under the same terms, the value for `Cn1c(C(=O)N2CCn3cc(C(=O)NO)cc3C2)ccc1S(N)(=O)=O` [Compound I-47, 2-{[5-(aminosulfonyl)-1-methyl-1H-pyrrol-2-yl]carbonyl}-N-hydroxy-1,2,3,4-tetrahydropyrrolo[1,2-a]pyrazine-7-carboxamide] was less than 0.1 µM; that for `O=C(NO)c1cc2n(c1)CCN(C(=O)c1ccc(-c3ccccc3)cc1)C2` [Compound I-51, 2-(biphenyl-4-ylcarbonyl)-N-hydroxy-1,2,3,4-tetrahydropyrrolo[1,2-a]pyrazine-7-carboxamide] was less than 0.1 µM; that for `COc1ccc(C(=O)N2CCn3cc(C(=O)NO)cc3C2)cc1` [Compound I-68, N-hydroxy-2-(4-methoxybenzoyl)-1,2,3,4-tetrahydropyrrolo[1,2-a]pyrazine-7-carboxamide] was less than 0.1 µM.

`O=C(NO)c1cc2n(c1)CCN(C(=O)c1c[nH]c3ccccc13)C2` [Compound I-75, N-hydroxy-2-(1H-indol-3-ylcarbonyl)-1,2,3,4-tetrahydropyrrolo[1,2-a]pyrazine-7-carboxamide] displayed an IC50 of less than 0.1 µM.

In turn, `Cc1cc(C(=O)N2CCn3cc(C(=O)NO)cc3C2)c(C)o1` [Compound I-85, 2-(2,5-dimethyl-3-furoyl)-N-hydroxy-1,2,3,4-tetrahydropyrrolo[1,2-a]pyrazine-7-carboxamide] returned an IC50 of less than 0.1 µM. With `Cc1c(C(=O)N2CCn3cc(C(=O)NO)cc3C2)cc(-c2ccccc2)n1-c1ccccc1` [Compound I-87, N-hydroxy-2-[(2-methyl-1,5-diphenyl-1H-pyrrol-3-yl)carbonyl]-1,2,3,4-tetrahydropyrrolo[1,2-a]pyrazine-7-carboxamide], the IC50 is less than 0.1 µM.

Still in this assay, the particulars now being: bins: greater than 1 μM and less than 10 μM; greater than 10 μM.
Compound `CC(C)N1CCn2nc(C(=O)NO)cc2C1=O` [Compound I-46, N-hydroxy-5-isopropyl-4-oxo-4,5,6,7-tetrahydropyrazolo[1,5-a]pyrazine-2-carboxamide] registered an IC50 of 1 to 10 µM. Same read-out and setting: the value for `COc1ccc(C(=O)N2CCCn3nc(C(=O)NO)cc3C2)cc1` [Compound I-53, N-hydroxy-5-(4-methoxybenzoyl)-5,6,7,8-tetrahydro-4H-pyrazolo[1,5-a][1,4]diazepine-2-carboxamide] was more than 10 µM; that for `CS(=O)(=O)c1cccc(C(=O)N2CCn3cc(C(=O)NO)cc3C2)c1` [Compound I-54, N-hydroxy-2-[3-(methylsulfonyl)benzoyl]-1,2,3,4-tetrahydropyrrolo[1,2-a]pyrazine-7-carboxamide] was more than 10 µM; that for `Cc1nc(C(=O)N2CCn3cc(C(=O)NO)nc3C2)cs1` [Compound I-55, N-hydroxy-7-[(2-methyl-1,3-thiazol-4-yl)carbonyl]-5,6,7,8-tetrahydroimidazo[1,2-a]pyrazine-2-carboxamide] was 1 to 10 µM. Still for that read-out and setting: with `O=C(NO)c1cc2n(c1)CCCN(C(=O)c1ccc(Cl)cc1)C2` [Compound I-56, 2-(4-chlorobenzoyl)-N-hydroxy-2,3,4,5-tetrahydro-1H-pyrrolo[1,2-a][1,4]diazepine-8-carboxamide] the figure was 1 to 10 µM; with `CC(C)(C)CC(=O)N1CCCn2cc(C(=O)NO)cc2C1` [Compound I-59, 2-(3,3-dimethylbutanoyl)-N-hydroxy-2,3,4,5-tetrahydro-1H-pyrrolo[1,2-a][1,4]diazepine-8-carboxamide], 1 to 10 µM. Still for that read-out and setting: with `Cn1nc(C(C)(C)C)cc1C(=O)N1CCCn2cc(C(=O)NO)cc2C1` [Compound I-63, 2-[(3-tert-butyl-1-methyl-1H-pyrazol-5-yl)carbonyl]-N-hydroxy-2,3,4,5-tetrahydro-1H-pyrrolo[1,2-a][1,4]diazepine-8-carboxamide] the figure was 1 to 10 µM. Consider `O=C(NO)c1cc2n(c1)CCN(C(=O)c1cnn(-c3ccccc3)c1C(F)(F)F)C2` [Compound I-64, N-hydroxy-2-{[1-phenyl-5-(trifluoromethyl)-1H-pyrazol-4-yl]carbonyl}-1,2,3,4-tetrahydropyrrolo[1,2-a]pyrazine-7-carboxamide], for which the IC50 was 1 to 10 µM.

For the compound `Cc1ccc(C(=O)N2CCCn3cc(C(=O)NO)cc3C2)s1` [Compound I-69, N-hydroxy-2-[(5-methyl-2-thienyl)carbonyl]-2,3,4,5-tetrahydro-1H-pyrrolo [1,2-a][1,4]diazepine-8-carboxamide], the IC50 is more than 10 µM.

Regarding `Cn1cccc1C(=O)N1CCCn2nc(C(=O)NO)cc2C1` [Compound I-71, N-hydroxy-5-[(1-methyl-1H-pyrrol-2-yl)carbonyl]-5,6,7,8-tetrahydro-4H-pyrazolo[1,5-a][1,4]diazepine-2-carboxamide], the IC50 was more than 10 µM.

`O=C(NO)c1cc2n(n1)CCCN(C(=O)C13CC4CC(CC(C4)C1)C3)C2` [Compound I-72, 5-(1-adamantylcarbonyl)-N-hydroxy-5,6,7,8-tetrahydro-4H-pyrazolo[1,5-a][1,4]diazepine-2-carboxamide] came in with a half-inhibitory concentration (IC50) of 1 to 10 µM. In the case of `Cc1nc(C(=O)N2CCn3cc(C(=O)NO)cc3C2)cs1` [Compound I-73, N-hydroxy-2-[(2-methyl-1,3-thiazol-4-yl)carbonyl]-1,2,3,4-tetrahydropyrrolo[1,2-a]pyrazine-7-carboxamide], the IC50 was more than 10 µM. On to `CC1(C(=O)N2CCCn3cc(C(=O)NO)cc3C2)CCCCC1` [Compound I-74, N-hydroxy-2-[(1-methylcyclohexyl)carbonyl]-2,3,4,5-tetrahydro-1H-pyrrolo[1,2-a][1,4]diazepine-8-carboxamide], for which the IC50 was in the range of 1 to 10 µM.

For the compound `CC(C)CCN1CCn2nc(C(=O)NO)cc2C1=O` [Compound I-77, N-hydroxy-5-(3-methylbutyl)-4-oxo-4,5,6,7-tetrahydropyrazolo[1,5-a]pyrazine-2-carboxamide], the concentration for half-maximal inhibition (IC50) lay in the range of 1 to 10 µM. `O=C(NO)c1cc2n(c1)CCCN(C(=O)c1c(Cl)cccc1Cl)C2` [Compound I-79, 2-(2,6-dichlorobenzoyl)-N-hydroxy-2,3,4,5-tetrahydro-1H-pyrrolo[1,2-a][1,4]diazepine-8-carboxamide]: the IC50 is 1 to 10 µM. `Cc1ccc(-c2ccc(C(=O)N3CCCn4cc(C(=O)NO)cc4C3)cc2)cc1` [Compound I-80, N-hydroxy-2-[(4′-methylbiphenyl-4-yl)carbonyl]-2,3,4,5-tetrahydro-1H-pyrrolo[1,2-a][1,4]diazepine-8-carboxamide]: the half-maximal inhibitory concentration (IC50) lay within 1 to 10 µM.

`Cc1oc(-c2ccccc2)nc1CC(=O)N1CCn2cc(C(=O)NO)cc2C1` [Compound I-82, N-hydroxy-2-[(5-methyl-2-phenyl-1,3-oxazol-4-yl)acetyl]-1,2,3,4-tetrahydropyrrolo[1,2-a]pyrazine-7-carboxamide] gave a concentration for half-maximal inhibition (IC50) of more than 10 µM. On the same count and under the same terms, with `O=C(NO)c1cc2n(n1)CCN(CC1CC1)C2=O` [Compound I-83, 5-(cyclopropylmethyl)-N-hydroxy-4-oxo-4,5,6,7-tetrahydropyrazolo[1,5-a]pyrazine-2-carboxamide] the figure was 1 to 10 µM; with `O=C(NO)c1cc2n(c1)CCN(C(=O)c1cnn3cccnc13)C2` [Compound I-84, N-hydroxy-2-(pyrazolo[1,5-a]pyrimidin-3-ylcarbonyl)-1,2,3,4-tetrahydropyrrolo[1,2-a]pyrazine-7-carboxamide], more than 10 µM. Same read-out and setting: the value for `CCCCN1CCn2cc(C(=O)NO)cc2C1` [Compound I-86, 2-butyl-N-hydroxy-1,2,3,4-tetrahydropyrrolo[1,2-a]pyrazine-7-carboxamide] was more than 10 µM. Same read-out and setting: the value for `CCOCCN1CCn2nc(C(=O)NO)cc2C1=O` [Compound I-88, 5-(2-ethoxyethyl)-N-hydroxy-4-oxo-4,5,6,7-tetrahydropyrazolo[1,5-a]pyrazine-2-carboxamide] was 1 to 10 µM.

One may read the IC50 as the concentration at which inhibition is half-maximal.

The values above are taken from patent US8946223B2, “Substituted hydroxamic acids and uses thereof” (Millennium Pharmaceuticals, Inc., priority 2010, dated 2015).
